From ChEMBL document CHEMBL1138822, “Bis-quinolinium cyclophanes: toward a pharmacophore model for the blockade of apamin-sensitive SKCa channels in sympathetic neurons” (Bioorg Med Chem Lett, 2004)

Target: Small conductance calcium-activated potassium channel (Rattus norvegicus, UniProt P70604+P70606+P70605)
Experiment: Inhibition of after hyperpolarization (AHP) of cultured rat sympathetic neurons as SKCa channel blocking activity
Format: functional, cell-based
Details: sympathetic neuron

Row | SMILES | IC50 [nM]
1 | c1ccc2c(c1)c1cc[n+]2CCCCC[n+]2ccc(c3ccccc32)NCCCCCCN1 | 12
2 | c1ccc2c(c1)c1cc[n+]2CCCCCC[n+]2ccc(c3ccccc32)NCCCCCCN1 | 60
3 | Cc1cc(N)c2ccccc2[n+]1CCCCCCCCCC[n+]1c(C)cc(N)c2ccccc21.[Cl-].[Cl-] [DEQUALINIUM CHLORIDE] | 900
4 | c1ccc2c(c1)c1cc[n+]2CCCC[n+]2ccc(c3ccccc32)NCCCCCN1 | 15
5 | c1ccc2c(c1)c1cc[n+]2CCCCCC[n+]2ccc(c3ccccc32)NCc2ccc(cc2)CN1 | 65
6 | c1cc2cc(c1)C[n+]1ccc(c3ccccc31)NCCCCCCNc1cc[n+](c3ccccc13)C2 | 35
7 | c1ccc2c(c1)c1cc[n+]2CCCCC[n+]2ccc(c3ccccc32)NCCCN1 | 30
8 | c1ccc2c(c1)c1cc[n+]2CCC[n+]2ccc(c3ccccc32)NCCCN1 (stereo in doubt; 2l) | 630
9 | c1cc2cc(c1)C[n+]1ccc(c3ccccc31)NCCCNc1cc[n+](c3ccccc13)C2 | 25
10 | c1ccc2c(c1)c1cc[n+]2CCCCCCCCCC[n+]2ccc(c3ccccc32)NCCCCCCCCCCN1 | 260
11 | [I-].[I-].c1ccc2c(c1)c1cc[n+]2CCCCCCCC[n+]2ccc(c3ccccc32)NCCCCCCCCN1 | 190
12 | c1ccc2c(c1)c1cc[n+]2CCC[n+]2ccc(c3ccccc32)NCCCN1 (stereo in doubt; 2m) | 380
13 | c1ccc2c(c1)c1cc[n+]2CCC[n+]2ccc(c3ccccc32)NCc2ccc(cc2)CN1 | 150
14 | c1ccc2c(c1)c1cc[n+]2CCCCCC[n+]2ccc(c3ccccc32)NCCCCCN1 | 16
15 | c1ccc2c(c1)c1cc[n+]2CCCCC[n+]2ccc(c3ccccc32)NCc2ccc(cc2)CN1 | 60
16 | c1ccc2c(c1)c1cc[n+]2CCCCC[n+]2ccc(c3ccccc32)NCCCCN1 | 9
17 | c1cc2cc(c1)C[n+]1ccc(c3ccccc31)NCCCCCNc1cc[n+](c3ccccc13)C2 | 31
18 | [I-].[I-].c1ccc2c(c1)c1cc[n+]2CCCCC[n+]2ccc(c3ccccc32)NCCCCCN1 | 2
19 | c1ccc2c(c1)c1cc[n+]2CCCC[n+]2ccc(c3ccccc32)NCCCCN1 | 40
